Measurements as given in paper PMC7279487, “Dual Target Ligands with 4-tert-Butylphenoxy Scaffold as Histamine H3 Receptor Antagonists and Monoamine Oxidase B Inhibitors” (International Journal of Molecular Sciences, 2020).
pIC50, pKi: −log10 of the molar value.

How the values were obtained:
[1] = molecular target: hH3R; conditions: read-out: H3R Ki; cited from earlier work
[2] = test system: AChE; design: method as in PMID 28861918; conditions: cited from earlier work
[3] = test system: BuChE; design: method as in PMID 28861918; conditions: cited from earlier work
[4] = toxicity in HEK-293 cells (EZ4U); format: cell-based, human; conditions: human, HEK-293 cells; reference doxorubicin at 0.2 and 0.05 µM; 48 h incubation; read-out: HEK-293 cell viability
Procedure: The used reference cytostatic drug doxorubicin (DX) decreased cell viability <50% under the same conditions at very low concentrations of 0.2 and 0.05 µM. […] Oxidative damage was induced by very high toxic levels of hydrogen peroxide (H2O2; 300 µM), the popular cell model for PD research, in neuroblastoma SH-SY5Y cell line. […] Salsolinol (SAL) was used at a concentration of 50 µM as the reference compound with the proven neuroprotection activity.
The HEK-293 cells were seeded at a concentration of 1.5 × 10^4 cells/well in 200 μL culture medium and incubated for 24 h at 37 °C and 5% CO2. […] Then, 25 μL EZ4U labelling mixture (Biomedica, Vienna, Austria) was added and the cells were incubated for 2 h. The spectrophotometric absorbance of the samples was measured using a microplate reader (EnSpire, PerkinElmer, Waltham, MA, USA) at 492 nm. All measurements were performed in triplicate, and results are shown as mean ± SD.

| SMILES | pKi [1] | pIC50 [2] | pIC50 [3] | viability at 48 h [4] |
| --- | --- | --- | --- | --- |
| C#CCN(C)Cc1cc2cc(OCCCN3CCCCC3)ccc2n1C [Contilisant] | 7.96 | 6.28 | 5.77 |  |
| COc1cccc2c1C(=O)c1c(O)c3c(c(O)c1C2=O)C[C@@](O)(C(=O)CO)C[C@@H]3O[C@H]1C[C@H](N)[C@H](O)[C@H](C)O1 [doxorubicin (DX), doxorubicin, reference compound] |  |  |  | < 50% |
